Test results: patent publication US20180344671A1, “Cysteamine as Neutrophil Elastase Inhibitor” (Novabiotics Limited, priority 2017, published 2018)

Experiments:
[1] = target: T1, human neutrophil elastase (Homo sapiens, UniProt P08246); assay: SDS PAGE of recombinant human neutrophil elastase treated with cysteamine and derivatives; conditions: FIG. 3; 2.5 μg NE with 2.5 or 5 μg compound, 1 h at 37° C., 8-16% Tris-Glycine SDS gel
T1 sequence (P08246 30-267): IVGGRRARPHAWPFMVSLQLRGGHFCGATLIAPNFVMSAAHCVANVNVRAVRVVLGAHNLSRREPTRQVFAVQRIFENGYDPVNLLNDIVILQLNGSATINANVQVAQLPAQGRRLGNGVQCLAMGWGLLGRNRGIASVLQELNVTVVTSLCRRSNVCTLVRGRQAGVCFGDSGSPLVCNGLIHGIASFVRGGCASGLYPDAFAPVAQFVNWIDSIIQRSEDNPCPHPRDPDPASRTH
Experimental: FIG. 3: The banding pattern and relative staining intensity of recombinant human neutrophil elastase is altered by the addition of cysteamine bitartrate and cysteamine free base. […] This 8-16% gradient Tri-Glycine SDS gel is loaded with a molecular weight marker and: 1. Recombinant human neutrophil elastase [2.5 μg total]; 2. Recombinant human neutrophil elastase [2.5 μg total] and cysteamine bitartrate [2.5 μg total]; 3. Recombinant human neutrophil elastase [2.5 μg total] and cysteamine bitartrate [5 μg total]; 4. Recombinant human neutrophil elastase [2.5 μg total] and cysteamine free base [2.5 μg total]; 5. Recombinant human neutrophil elastase [2.5 μg total] and cysteamine free base [5 μg total]; 6. Recombinant human neutrophil elastase [2.5 μg total] and cystamine dihydrochloride [2.5 μg total]; 7. Recombinant human neutrophil elastase [2.5 μg total] and cystamine dihydrochloride [5 μg total].
Recombinant proteins were treated with or without cysteamine and its derivatives at the concentrations stated in the figures below for 1 h at 37° C. prior to addition of 2× sample buffer and electrophoretic separation on pre-cast 8-16% tris-glycine SDS polyacrylamide gradient gel (Life Technologies) under a constant voltage of 120V in tris-glycine running buffer until the dye front reached the end of the gel. Samples were not heated prior to loading to minimize denaturation of disulphide bonds on the denaturing gel. Precision Plus (Bio-Rad) prestained protein standards were used alongside samples. After electrophoresis gels were carefully removed from the plastic cassettes and washed in sterile distilled water to remove SDS 3× for 5 min. Protein bands were visualized using coomassie-based Simply Blue™ Safe Stain (Life Technologies) staining for 1 h at room temperature. The gel was washed overnight in sterile distilled water, and for a further hour in fresh water prior to photographing.

[2] = target: T1, human neutrophil elastase; assay: Neutrophil Elastase Inhibitor Screening Kit (Sigma MAK213), fluorometric; type: biochemical; set-up: purchased Sigma-Aldrich MAK213; conditions: for effect on human neutrophil elastase activity measured fluorometrically: FIG. 2, result in words; for Relative inhibition of NE activity (%): 30 min, 37° C.
Experimental: Neutrophil Elastase Inhibitor Screening Kit is available from Sigma-Aldrich, catalogue number MAK213. This kit measures neutrophil elastase activity by detecting the hydrolysis and release of a fluorescent product. It allows for the screening of unknown substances for inhibitory activity and compares with a positive inhibitor control. Cysteamine free base, cysteamine bitartrate, and cystamine dihydrochloride were prepared in the assay buffer provided at four times the final testing concentration and combined with enzyme and substrate as appropriate and as defined in the full protocol. Samples were prepared in 96 well microtiter plates with black well walls. Background fluorescence can be determined by omitting the neutrophil elastase from a sample blank control. Fluorescence was measured at 400ex/505em nm on a Biotek Synergy plate reader over 30 min at an incubation temperature of 37° C. Relative inhibition is determined by the following equations: Slope=(Fluorescence 2−Fluorescence 1)/(Time 2−Time 1)=delta fluorescence/minute % Relative Inhibition=((SlopeEC−SlopeSM)/SlopeEC))×100 Where: SlopeSM=the slope of the sample inhibitor (cysteamine and derivatives) & SlopeEC=the slope of the Enzyme control.

| SMILES | banding pattern and relative staining intensity of recombinant human neutrophil elastase [1] | effect on human neutrophil elastase activity measured fluorometrically [2] | Relative inhibition of NE activity (%) ([2]; Cysteamine bitartrate concentration 20 μg/ml) | Relative inhibition of NE activity (%) ([2]; Cysteamine bitartrate concentration 200 μg/ml) | Relative inhibition of NE activity (%) ([2]; Cysteamine bitartrate concentration 2000 μg/ml) |
| --- | --- | --- | --- | --- | --- |
| Cl.Cl.NCCSSCCN [Cystamine dihydrochloride, cystamine dihydrochloride] | less of an effect | minimal effect | – | – | – |
| NCCS.O=C(O)C(O)C(O)C(=O)O (stereo not drawn) [Cysteamine bitartrate, cysteamine bitartrate] | altered | effected human neutrophil elastase activity | 12.526 | 30.689 | 86.639 |
| NCCS [cysteamine free base, NH2—CH2—CH2—SH] | altered | effected human neutrophil elastase activity | – | – | – |
